Where “and” joins values, the source holds several entries; their conditions need not be identical. Equal values may be shown once.
Tested on: A498 complex spheroids with HUVEC/MSC, growth
Test: Anticancer human tumor A498 cell line growth inhibition [AhR];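 further: seven day exposure starting three days after spheroid seeding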;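 on viability, T/C: luminescence signal used as a surrogate for viable cells; luminescence viability scaled so 100% equals DMSO vehicle wells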
Conditions: for viability, T/C: stronger effect = lower value
Method in brief: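 Agents were dosed in half-log steps down from roughly clinical Cmax, or from 10 microM where Cmax was unknown, alone and with AhR antagonists. Read-out: percent test/control growth of tumor spheroids containing HUVEC and MSC stromal cells.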

[1] = curve of first compound, second compound 0.1 µM
[2] = curve of first compound, second compound 0.316 µM
[3] = curve of first compound, second compound 1 µM
[4] = curve of first compound, second compound 3.16 µM
[5] = curve of first compound, second compound 10 µM
[6] = second compound 0.1 µM, first compound 0.0316 µM
[7] = second compound 0.1 µM, first compound 0.1 µM
[8] = second compound 0.1 µM, first compound 0.316 µM
[9] = second compound 0.1 µM, first compound 1 µM
[10] = second compound 0.1 µM, first compound 3.16 µM
[11] = second compound 0.1 µM, first compound 10 µM
[12] = second compound 0.316 µM, first compound 0.0316 µM
[13] = second compound 0.316 µM, first compound 0.1 µM
[14] = second compound 0.316 µM, first compound 0.316 µM
[15] = second compound 0.316 µM, first compound 1 µM
[16] = second compound 0.316 µM, first compound 3.16 µM
[17] = second compound 0.316 µM, first compound 10 µM
[18] = second compound 1 µM, first compound 0.0316 µM
[19] = second compound 1 µM, first compound 0.1 µM
[20] = second compound 1 µM, first compound 0.316 µM
[21] = second compound 1 µM, first compound 1 µM
[22] = second compound 1 µM, first compound 3.16 µM
[23] = second compound 1 µM, first compound 10 µM
[24] = second compound 3.16 µM, first compound 0.0316 µM
[25] = second compound 3.16 µM, first compound 0.1 µM
[26] = second compound 3.16 µM, first compound 0.316 µM
[27] = second compound 3.16 µM, first compound 1 µM
[28] = second compound 3.16 µM, first compound 3.16 µM
[29] = second compound 3.16 µM, first compound 10 µM
[30] = second compound 10 µM, first compound 0.0316 µM
[31] = second compound 10 µM, first compound 0.1 µM
[32] = second compound 10 µM, first compound 0.316 µM
[33] = second compound 10 µM, first compound 1 µM
[34] = second compound 10 µM, first compound 3.16 µM
[35] = second compound 10 µM, first compound 10 µM

For CC(C)c1c(-c2ccccc2)nc2c(C#N)c[nH]n2c1=O + Cc1cncc(-c2nc(NCCc3c[nH]c4ccccc34)c3ncn(C(C)C)c3n2)c1, the IC50 [1] was greater than 10000 nM, the IC50 [2] was greater than 10000 nM and the IC50 [3] was greater than 10000 nM. The IC50 [4] was greater than 10000 nM, the IC50 [5] was less than 31.6 nM and the viability, T/C [6] was 89.4%. The viability, T/C [7] was 92.7%, the viability, T/C [8] was 98.5% and the viability, T/C [9] was 104%. For the same molecule, the viability, T/C [10] was 100%, the viability, T/C [11] was 94.8% and the viability, T/C [12] was 103%. The viability, T/C [13] was 104%, the viability, T/C [14] was 95.6% and the viability, T/C [15] was 91%. For the same molecule, the viability, T/C [16] was 96.9%, the viability, T/C [17] was 98.5% and the viability, T/C [18] was 92.6%. The viability, T/C [19] was 95.8%, the viability, T/C [20] was 95.2% and the viability, T/C [21] was 88.8%. It also gave a viability, T/C [22] of 91.6%, a viability, T/C [23] of 91.2% and a viability, T/C [24] of 50.7%. The viability, T/C [25] was 49.1%, the viability, T/C [26] was 52.8% and the viability, T/C [27] was 54.9%. It also gave a viability, T/C [28] of 49.2%, a viability, T/C [29] of 52.7% and a viability, T/C [30] of 3%. The viability, T/C [31] was 4.01%, the viability, T/C [32] was 4.28% and the viability, T/C [33] was 3.84%. The viability, T/C [34] was 3.64% and the viability, T/C [35] was 4.87%.
In the case of Nc1ccn(C2OC(CO)C(O)C2(F)F)c(=O)n1 (configuration not stated) + Cc1ccccc1N=Nc1ccc(NC(=O)c2ccnn2C)c(C)c1, the IC50 [1] is reported as less than 31.6 nM, the IC50 [2] is reported as less than 31.6 nM and the IC50 [3] is reported as less than 31.6 nM. For the same molecule, the IC50 [4] was less than 31.6 nM, the IC50 [5] was less than 31.6 nM and the viability, T/C [6] was 33.3%. The viability, T/C [7] was 36%, the viability, T/C [8] was 39.9% and the viability, T/C [9] was 47.9%. The viability, T/C [10] was 46.9%, the viability, T/C [11] was 43.5% and the viability, T/C [12] was 30.9%. It also gave a viability, T/C [13] of 33.1%, a viability, T/C [14] of 43.9% and a viability, T/C [15] of 44.8%. For the same molecule, the viability, T/C [16] was 50.5%, the viability, T/C [17] was 38% and the viability, T/C [18] was 35.5%. The viability, T/C [19] was 33.2%, the viability, T/C [20] was 44% and the viability, T/C [21] was 50.7%. It also gave a viability, T/C [22] of 42.7%, a viability, T/C [23] of 38.2% and a viability, T/C [24] of 37%. The viability, T/C [25] was 37.5%, the viability, T/C [26] was 46.5% and the viability, T/C [27] was 41.8%. For the same molecule, the viability, T/C [28] was 44.6%, the viability, T/C [29] was 38.8% and the viability, T/C [30] was 37.4%. The viability, T/C [31] was 40.8%, the viability, T/C [32] was 46.6% and the viability, T/C [33] was 45.7%. It also gave a viability, T/C [34] of 44.7% and a viability, T/C [35] of 40.9%.
For Nc1ncn(C2CC(O)C(CO)S2)c(=O)n1 (configuration not stated), the viability, T/C (compound 0.000949 µM) was 100% and 102% and 109%, the viability, T/C (compound 0.003 µM) was 99.7% and 106% and 114% and the viability, T/C (compound 0.00949 µM) was 94.9% and 101% and 108%. The viability, T/C (compound 0.03 µM) was 97.8% and 105% and 96%, the viability, T/C (compound 0.0949 µM) was 79.2% and 95.2% and 85% and the viability, T/C (compound 0.3 µM) was 81% and 89.7% and 68.3%. For the same molecule, the IC50 (curve of compound) was greater than 300 nM.

Source: PubChem BioAssay AID1919007 (Molecular Pharmacology Branch, DTP, NCI, 2023)
